Literature values, collected in US7271157B2, “A1 adenosine receptor agonists” (CV Therapeutics, Inc., priority 2004, dated 2007).

Experiments:
A1-adenosine receptor = biological target: T1, A1-adenosine receptor (Homo sapiens, UniProt P30542)
T1 sequence (P30542 1-326): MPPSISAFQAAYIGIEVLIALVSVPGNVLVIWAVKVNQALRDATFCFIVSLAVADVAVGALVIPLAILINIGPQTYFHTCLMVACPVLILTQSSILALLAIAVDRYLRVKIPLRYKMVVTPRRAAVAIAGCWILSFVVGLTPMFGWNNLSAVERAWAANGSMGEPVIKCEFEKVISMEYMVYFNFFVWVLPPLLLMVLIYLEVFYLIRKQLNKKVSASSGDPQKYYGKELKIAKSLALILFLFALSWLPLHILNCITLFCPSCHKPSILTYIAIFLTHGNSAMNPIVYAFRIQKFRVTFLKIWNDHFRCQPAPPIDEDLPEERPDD

seizures induced by DMCM = details: experimental models of epilepsy

OC1CCCC1Nc1ncnc2c1ncn2[C@@H]1O[C@H](CSc2ccccc2F)[C@@H](O)[C@H]1O (mixture of isomers) [(4S,5S,2R,3R)-5-[(2-fluorophenylthio)methyl]-2-{6-[(2-hydroxycyclopentyl)amino]-purin-9-yl}oxolane-3,4-diol]
A1-adenosine receptor agonist character and selectivity (A1-adenosine receptor): highly selective partial A1-adenosine receptor agonist

Cc1ccccc1CNc1ncnc2c1ncn2[C@@H]1O[C@H](CO)[C@@H](O)[C@H]1O [metrifudil]
anticonvulsant activity against DMCM-induced seizures (seizures induced by DMCM): potent anticonvulsant

Nc1ncnc2c1ncn2[C@@H]1O[C@H](CO)[C@@H](O)[C@H]1O [adenosine]
half-life: less than 10 sec
